The values below come from US10604531B2, “Enhancer of zeste homolog 2 inhibitors” (GLAXOSMITHKLINE INTELLECTUAL PROPERTY (NO.2) LIMITED, priority 2016, dated 2020).

As usually defined, the IC50 is the concentration that inhibits the measured activity by half. Read a low IC50 as greater potency.

In data set [1] the target is EZH2 within the PRC2 complex (FLAG-EZH2, EED, SUZ12, RbAp48, AEBP2) (Homo sapiens (Human), UniProt Q15910). As to the kind of experiment: EZH2 methyltransferase scintillation proximity assay (SPA), PRC2 complex. In kind it is biochemical. The note with it: 3H-SAM, biotinylated histone H3K27 peptide, 60 min at room temperature; values of 10 nM approach the assay's limit of detection. As for the experimental part: Compounds contained herein were evaluated for their ability to inhibit the methyltransferase activity of EZH2 within the PRC2 complex. Human PRC2 complex was prepared by co-expressing each of the 5 member proteins (FLAG-EZH2, EED, SUZ12, RbAp48, AEBP2) in Sf9 cells followed by co-purification. Enzyme activity was measured in a scintillation proximity assay (SPA) where a tritiated methyl group is transferred from 3H-SAM to a lysine residue on a biotinylated, unmethylated peptide substrate derived from histone H3. The peptides were captured on streptavidin-coated SPA beads and the resulting signal was read on a ViewLux plate reader.
Part A. Compound Preparation
• 1. Prepare 10 mM stock of compounds from solid in 100% DMSO. • 2. Set up an 11-point serial dilution (1:4 dilution, top concentration 10 mM) in 100% DMSO for each test compound in a 384 well plate leaving columns 6 and 18 for DMSO controls. • 3. Dispense 10 nL of compound from the dilution plate into reaction plates (Corning, 384-well polystyrene NBS, Cat #3673). Part B. Reagent Preparation Prepare the following solutions: • 1. 1× Base Buffer, 50 mM Tris-HCl, pH 8, 2 mM MgCl2: Per 1 L of base buffer, combine 1 M Tris-HCl, pH 8 (50 mL), 1 M MgCl2 (2 mL), and distilled water (948 mL). • 2. 1× Assay Buffer: Per 10 mL of 1× Assay Buffer, combine 1× Base Buffer (9.96 mL), 1 M DTT (40 uL), and 10% Tween-20 (1 uL) to provide a final concentration of 50 mM Tris-HCl, pH 8, 2 mM MgCl2, 4 mM DTT, 0.001% Tween-20. • 3. 2× Enzyme Solution: Per 10 mL of 2× Enzyme Solution, combine 1× Assay Buffer (9.99 mL) and 3.24 uM EZH2 5 member complex (6.17 uL) to provide a final enzyme concentration of 1 nM. • 4. SPA Bead Solution: Per 1 mL of SPA Bead Solution, combine Streptavidin coated SPA beads (PerkinElmer, Cat # RPNQ0261, 40 mg) and 1× Assay Buffer (1 mL) to provide a working concentration of 40 mg/mL. • 5. 2× Substrate Solution: Per 10 mL of 2× Substrate Solution, combine 40 mg/mL SPA Bead Solution (375 uL), 1 mM biotinylated histone H3K27 peptide (200 uL), 12.5 uM 3H-SAM (240 uL; 1 mCi/mL), 1 mM cold SAM (57 uL), and 1× Assay Buffer (9.13 mL) to provide a final concentration of 0.75 mg/mL SPA Bead Solution, 10 uM biotinylated histone H3K27 peptide, 0.15 uM 3H-SAM (˜12 uCi/mL 3H-SAM), and 2.85 uM cold SAM. • 6. 2.67× Quench Solution: Per 10 mL of 2.67× Quench Solution, combine 1× Assay Buffer (9.73 mL) and 10 mM cold SAM (267 uL) to provide a final concentration of 100 uM cold SAM. Part C. Assay Reaction in 384-well Grenier Bio-One Plates Compound Addition • 1. Stamp 10 nL/well of 1000× Compound to test wells (as noted above). • 2. Stamp 10 nL/well of 100% DMSO to columns 6 & 18 (high and low controls, respectively). Assay • 1. Dispense 5 uL/well of 1× Assay Buffer to column 18 (low control reactions). • 2. Dispense 5 uL/well of 2× Substrate Solution to columns 1-24 (note: substrate solution should be mixed to ensure homogeneous bead suspension before dispensing into matrix reservoir). • 3. Dispense 5 uL/well of 2× Enzyme Solution to columns 1-17, 19-24. • 4. Incubate the reaction for 60 min at room temperature. Quench • 1. Dispense 6 uL/well of the 2.67× Quench Solution to columns 1-24. • 2. Seal assay plates and spin for ˜1 min at 500 rpm. • 3. Dark adapt plates in the ViewLux instrument for 15-60 min. Read Plates • 1. Read the assay plates on the Viewlux Plate Reader utilizing the 613 nm emission filter or clear filter (300 s exposure). Reagent addition can be done manually or with automated liquid handler. Results
Percent inhibition was calculated relative to the DMSO control for each compound concentration and the resulting values were fit using standard IC50 fitting parameters within the ABASE data fitting software package.
A general note: SPA uses beads or plates that emit light when radiolabelled molecules are held near them.

For data set [2] the following is noted: for XRPD after DVS experiment: form change or change in crystallinity: post DVS sample.

Sequence of EZH2 within the PRC2 complex (FLAG-EZH2, EED, SUZ12, RbAp48, AEBP2) (Q15910 whole entry): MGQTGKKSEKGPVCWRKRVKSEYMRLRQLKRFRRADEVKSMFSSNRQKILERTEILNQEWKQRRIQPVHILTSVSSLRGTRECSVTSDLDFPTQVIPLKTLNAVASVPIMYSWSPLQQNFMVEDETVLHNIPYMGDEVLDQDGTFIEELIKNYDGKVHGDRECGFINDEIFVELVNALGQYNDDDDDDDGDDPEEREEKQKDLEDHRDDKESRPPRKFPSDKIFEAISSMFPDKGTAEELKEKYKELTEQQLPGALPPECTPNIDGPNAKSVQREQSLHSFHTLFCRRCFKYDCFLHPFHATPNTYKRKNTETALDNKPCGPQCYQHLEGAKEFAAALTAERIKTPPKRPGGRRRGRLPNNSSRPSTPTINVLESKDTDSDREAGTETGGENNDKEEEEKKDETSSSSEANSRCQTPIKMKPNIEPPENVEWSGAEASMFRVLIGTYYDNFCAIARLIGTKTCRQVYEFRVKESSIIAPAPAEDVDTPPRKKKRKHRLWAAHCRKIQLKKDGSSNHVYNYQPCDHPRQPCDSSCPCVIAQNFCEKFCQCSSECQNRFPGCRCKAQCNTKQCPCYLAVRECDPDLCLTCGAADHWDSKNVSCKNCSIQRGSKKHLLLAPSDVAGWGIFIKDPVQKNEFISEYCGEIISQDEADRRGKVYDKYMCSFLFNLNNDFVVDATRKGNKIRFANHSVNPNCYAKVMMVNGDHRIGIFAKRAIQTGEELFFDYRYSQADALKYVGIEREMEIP
Sequence of EZH2 within the PRC2 complex (FLAG-EZH2, EED, SUZ12, RbAp48, AEBP2) (O75530 whole entry partner): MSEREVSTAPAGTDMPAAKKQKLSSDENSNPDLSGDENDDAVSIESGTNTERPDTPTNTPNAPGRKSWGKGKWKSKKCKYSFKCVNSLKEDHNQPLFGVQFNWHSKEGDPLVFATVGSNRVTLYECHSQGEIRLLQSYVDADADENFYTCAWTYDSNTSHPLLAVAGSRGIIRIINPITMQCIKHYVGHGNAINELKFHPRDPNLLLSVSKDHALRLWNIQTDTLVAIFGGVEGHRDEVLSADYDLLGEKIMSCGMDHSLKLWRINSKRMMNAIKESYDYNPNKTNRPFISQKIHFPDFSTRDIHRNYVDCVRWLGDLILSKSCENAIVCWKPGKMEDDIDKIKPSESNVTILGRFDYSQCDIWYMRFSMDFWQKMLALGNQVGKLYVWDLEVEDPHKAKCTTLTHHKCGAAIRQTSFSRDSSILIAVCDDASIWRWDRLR
Sequence of EZH2 within the PRC2 complex (FLAG-EZH2, EED, SUZ12, RbAp48, AEBP2) (Q15022 whole entry partner): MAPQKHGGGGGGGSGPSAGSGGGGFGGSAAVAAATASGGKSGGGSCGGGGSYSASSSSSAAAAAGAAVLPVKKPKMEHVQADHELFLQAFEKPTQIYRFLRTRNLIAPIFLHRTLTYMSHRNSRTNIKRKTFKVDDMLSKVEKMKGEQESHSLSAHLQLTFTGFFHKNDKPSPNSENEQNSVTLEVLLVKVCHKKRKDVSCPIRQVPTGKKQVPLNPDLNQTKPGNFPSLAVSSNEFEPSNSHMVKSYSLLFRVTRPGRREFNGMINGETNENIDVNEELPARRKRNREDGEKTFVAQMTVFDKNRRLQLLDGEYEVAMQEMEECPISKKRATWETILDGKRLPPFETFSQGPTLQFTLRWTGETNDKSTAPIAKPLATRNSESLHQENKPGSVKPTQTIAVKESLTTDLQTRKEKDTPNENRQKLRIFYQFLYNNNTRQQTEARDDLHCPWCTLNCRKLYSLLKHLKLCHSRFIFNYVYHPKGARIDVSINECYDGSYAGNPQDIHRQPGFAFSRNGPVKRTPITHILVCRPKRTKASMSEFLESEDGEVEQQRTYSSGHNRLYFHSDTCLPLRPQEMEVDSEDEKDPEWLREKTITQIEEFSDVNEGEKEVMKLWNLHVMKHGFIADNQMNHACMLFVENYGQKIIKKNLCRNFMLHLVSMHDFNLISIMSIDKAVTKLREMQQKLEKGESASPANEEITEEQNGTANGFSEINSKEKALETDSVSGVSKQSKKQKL
Sequence of EZH2 within the PRC2 complex (FLAG-EZH2, EED, SUZ12, RbAp48, AEBP2) (Q09028 whole entry partner): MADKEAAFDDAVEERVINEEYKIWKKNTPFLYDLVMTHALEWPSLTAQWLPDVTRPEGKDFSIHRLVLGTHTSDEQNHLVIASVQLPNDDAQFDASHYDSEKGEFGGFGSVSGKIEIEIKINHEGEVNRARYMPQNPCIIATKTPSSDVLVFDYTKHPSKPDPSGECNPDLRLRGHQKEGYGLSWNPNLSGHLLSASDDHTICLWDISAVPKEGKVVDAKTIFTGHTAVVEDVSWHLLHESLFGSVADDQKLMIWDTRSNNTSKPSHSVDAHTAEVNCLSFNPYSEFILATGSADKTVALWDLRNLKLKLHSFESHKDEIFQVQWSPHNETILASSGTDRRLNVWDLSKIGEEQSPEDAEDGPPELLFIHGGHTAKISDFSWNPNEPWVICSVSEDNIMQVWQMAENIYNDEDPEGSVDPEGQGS
Sequence of EZH2 within the PRC2 complex (FLAG-EZH2, EED, SUZ12, RbAp48, AEBP2) (Q6ZN18 whole entry partner): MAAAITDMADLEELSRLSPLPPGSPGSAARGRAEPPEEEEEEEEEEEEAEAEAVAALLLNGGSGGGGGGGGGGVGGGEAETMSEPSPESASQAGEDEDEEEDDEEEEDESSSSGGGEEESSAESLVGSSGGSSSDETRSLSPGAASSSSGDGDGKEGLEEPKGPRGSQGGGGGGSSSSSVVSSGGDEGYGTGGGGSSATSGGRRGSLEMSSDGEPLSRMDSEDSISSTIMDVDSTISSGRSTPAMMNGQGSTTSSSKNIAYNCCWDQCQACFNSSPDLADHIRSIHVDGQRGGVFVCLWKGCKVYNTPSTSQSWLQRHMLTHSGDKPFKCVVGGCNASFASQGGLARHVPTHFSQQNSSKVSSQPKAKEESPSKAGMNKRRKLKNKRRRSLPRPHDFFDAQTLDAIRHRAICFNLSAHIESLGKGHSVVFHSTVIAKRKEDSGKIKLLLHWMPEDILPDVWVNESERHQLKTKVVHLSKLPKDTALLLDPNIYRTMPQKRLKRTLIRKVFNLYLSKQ

In data set [1], `Cc1cc(C)c(CN2CCCc3sc([C@H](C)C4CCN(CC(C)(C)C)CC4)c(C)c3C2=O)c(=O)[nH]1` [Example 1, (R)-5-((4,6-Dimethyl-2-oxo-1,2-dihydropyridin-3-yl)methyl)-3-methyl-2-(1-(1-neopentylpiperidin-4-yl)ethyl)-5,6,7,8-tetrahydro-4H-thieno[3,2-c]azepin-4-one] registered a concentration for half-maximal inhibition (IC50) of at most 10 nM.
Still for that read-out and setting: under `Cc1cc(C)c(CN2CCCc3sc([C@H](C)C4CCN(CC5CCC5)CC4)c(C)c3C2=O)c(=O)[nH]1` [Example 2, (R)-2-(1-(1-(Cyclobutylmethyl)piperidin-4-yl)ethyl)-5-((4,6-dimethyl-2-oxo-1,2-dihydropyridin-3-yl)methyl)-3-methyl-5,6,7,8-tetrahydro-4H-thieno[3,2-c]azepin-4-one] stands at most 10 nM; under `Cc1cc(C)c(CN2CCCc3sc([C@H](C)C4CCN(CC(C)C)CC4)c(C)c3C2=O)c(=O)[nH]1` [Example 3, (R)-5-((4,6-Dimethyl-2-oxo-1,2-dihydropyridin-3-yl)methyl)-2-(1-(1-isobutylpiperidin-4-yl)ethyl)-3-methyl-5,6,7,8-tetrahydro-4H-thieno[3,2-c]azepin-4-one], at most 10 nM; under `Cc1cc(C)c(CN2CCCc3sc([C@H](C)C4CCN(CC5CCCC5)CC4)c(C)c3C2=O)c(=O)[nH]1` [Example 4, (R)-2-(1-(1-(Cyclopentylmethyl)piperidin-4-yl)ethyl)-5-((4,6-dimethyl-2-oxo-1,2-dihydropyridin-3-yl)methyl)-3-methyl-5,6,7,8-tetrahydro-4H-thieno[3,2-c]azepin-4-one], at most 10 nM.
Take `CCC(C)(C)CN1CCC([C@@H](C)c2sc3c(c2C)C(=O)N(Cc2c(C)cc(C)[nH]c2=O)CCC3)CC1` [Example 5, (R)-5-((4,6-Dimethyl-2-oxo-1,2-dihydropyridin-3-yl)methyl)-2-(1-(1-(2,2-dimethylbutyl)piperidin-4-yl)ethyl)-3-methyl-5,6,7,8-tetrahydro-4H-thieno[3,2-c]azepin-4-one]: the IC50 in data set [1] was at most 10 nM.
The same measure, in the same setting: under `Cc1cc(C)c(CN2CCCc3sc([C@H](C)C4CCN(CC(C)(C)F)CC4)c(C)c3C2=O)c(=O)[nH]1` [Example 6, (R)-5-((4,6-Dimethyl-2-oxo-1,2-dihydropyridin-3-yl)methyl)-2-(1-(1-(2-fluoro-2-methylpropyl)piperidin-4-yl)ethyl)-3-methyl-5,6,7,8-tetrahydro-4H-thieno[3,2-c]azepin-4-one] stands at most 10 nM; under `Cc1cc(C)c(CN2CCCc3sc([C@H](C)C4CCN(CC5CC5)CC4)c(C)c3C2=O)c(=O)[nH]1` [Example 7, (R)-2-(1-(1-(Cyclopropylmethyl)piperidin-4-yl)ethyl)-5-((4,6-dimethyl-2-oxo-1,2-dihydropyridin-3-yl)methyl)-3-methyl-5,6,7,8-tetrahydro-4H-thieno[3,2-c]azepin-4-one], at most 10 nM; under `Cc1cc(C)c(CN2CCCc3sc([C@H](C)C4CCN(CC5(C)CCCC5)CC4)c(C)c3C2=O)c(=O)[nH]1` [Example 8, (R)-5-((4,6-Dimethyl-2-oxo-1,2-dihydropyridin-3-yl)methyl)-3-methyl-2-(1-(1-((1-methylcyclopentyl)methyl)piperidin-4-yl)ethyl)-5,6,7,8-tetrahydro-4H-thieno[3,2-c]azepin-4-one], at most 10 nM.
In data set [1], `Cc1cc(C)c(CN2CCCc3sc([C@H](C)C4CCN(CC56CCC(CC5)CC6)CC4)c(C)c3C2=O)c(=O)[nH]1` [Example 9, (R)-2-(1-(1-(Bicyclo[2.2.2]octan-1-ylmethyl)piperidin-4-yl)ethyl)-5-((4,6-dimethyl-2-oxo-1,2-dihydropyridin-3-yl)methyl)-3-methyl-5,6,7,8-tetrahydro-4H-thieno[3,2-c]azepin-4-one] yielded an IC50 of at most 10 nM.
With `Cc1cc(C)c(CN2CCCc3sc([C@H](C)C4CCN(CC5(C)CCC5)CC4)c(C)c3C2=O)c(=O)[nH]1` [Example 10, (R)-5-((4,6-Dimethyl-2-oxo-1,2-dihydropyridin-3-yl)methyl)-3-methyl-2-(1-(1-((1-methylcyclobutyl)methyl)piperidin-4-yl)ethyl)-5,6,7,8-tetrahydro-4H-thieno[3,2-c]azepin-4-one], the concentration for half-maximal inhibition (IC50) in data set [1] is at most 10 nM.
Same read-out and setting: under `Cc1cc(C)c(CN2CCCc3sc([C@H](C)C4CCN(CC5(C)CC5)CC4)c(C)c3C2=O)c(=O)[nH]1` [Example 11, (R)-5-((4,6-Dimethyl-2-oxo-1,2-dihydropyridin-3-yl)methyl)-3-methyl-2-(1-(1-((1-methylcyclopropyl)methyl)piperidin-4-yl)ethyl)-5,6,7,8-tetrahydro-4H-thieno[3,2-c]azepin-4-one] stands at most 10 nM.
Take `Cc1cc(C)c(CN2CCCc3sc([C@H](C)C4CCN(CC5(C)CCC5)CC4)c(C)c3C2=O)c(=O)[nH]1.Cl` [hydrochloric acid salt of (R)-5-((4,6-dimethyl-2-oxo-1,2-dihydropyridin-3-yl)methyl)-3-methyl-2-(1-(1-((1-methylcyclobutyl)methyl)piperidin-4-yl)ethyl)-5,6,7,8-tetrahydro-4H-thieno[3,2-c]azepin-4-one]: in data set [2] (DVS isotherm 5-95% RH), the hygroscopicity entry is listed as “low level of hygroscopicity”. In addition, the DVS moisture uptake in data set [2] (between 5-75% RH) is about 0.5%. For the same compound, the “DVS total uptake of water” value in data set [2] (from 5-95% RH) was 0.6%. For the same compound, in data set [2], the “XRPD after DVS experiment: form change or change in crystallinity” value is recorded as “did not show a change in crystal form or crystallinity”.
With `Cc1cc(C)c(CN2CCCc3sc([C@H](C)C4CCN(CC(C)(C)C)CC4)c(C)c3C2=O)c(=O)[nH]1.Cl` [hydrochloric acid salt of (R)-5-((4,6-dimethyl-2-oxo-1,2-dihydropyridin-3-yl)methyl)-3-methyl-2-(1-(1-neopentylpiperidin-4-yl)ethyl)-5,6,7,8-tetrahydro-4H-thieno[3,2-c]azepin-4-one], the “DVS total moisture uptake” value in data set [2] (first cycle from 40-75% RH) was 0.5%. The “XRPD after DVS experiment: form change or change in crystallinity” value in data set [2] is “did not indicate a form change or change in crystallinity”. This compound had a DVS decrease in data set [2] (second cycle, between 80-90% RH) of 0.4%. Further, the DVS sorption in data set [2] (second cycle, from 5-80% RH) came to 1.0%.
